Laboratory results: patent US20050075375A1 (priority 2003, published 2005)
Like-named read-outs stand apart in the source and are kept apart here.

Tested on: monocistronic NK5.1 HCV replicon in Huh7 cells
Assay: HCV replicon assay, monocistronic replicon cell line
Type: cell-based, hepatitis C virus
Details: Hepatitis C virus, read-out: Mono EC50 Median
Outline: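 EC50 derives from the HCV RNA/GAPDH RNA ratio by one-step TaqMan RT-PCR, relative to DMSO-only wells. Compounds (six half-log concentrations, 0.6% DMSO) were incubated 3 days at 37 °C with NK5.1 monocistronic replicon Huh7 cells plated a day earlier.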

[1] = Huh-7, 72 h, table T3 (compounds 471-640), monocistronic replicon in Huh7 cells, 3 days incubation, HCV RNA/GAPDH RNA by TaqMan RT-PCR
[2] = Huh-7, monocistronic NK5.1 HCV replicon in Huh7 cells, median value
[3] = Huh-7, 72 h, Table 1, monocistronic replicon in Huh7 cells, 3 days incubation, HCV RNA/GAPDH RNA by TaqMan RT-PCR

SMILES | EC50 [1] | EC50 [2] | EC50 [3]
Oc1ccc(O)c(-c2nc(-c3ncccc3C(F)(F)F)n[nH]2)c1 [Compound 546, 4-Hydroxy-2-[5-(3-trifluoromethyl-pyridin-2-yl)-2H-[1,2,4]triazol-3-yl]-phenol] | > 19 µM | – | –
Fc1ccccc1-c1nnc(-c2ncc(C(F)(F)F)cc2Cl)o1 [Compound 349, 3-Chloro-2-[5-(2-fluoro-phenyl)-[1,3,4]oxadiazol-2-yl]-5-trifluoromethyl-pyridine] | – | > 32 µM | –
COc1ccc(O)c(-c2nc(-c3ccc(C(F)(F)F)cn3)n[nH]2)c1 [Compound 510, 4-Methoxy-2-[5-(5-trifluoromethyl-pyridin-2-yl)-2H-[1,2,4]triazol-3-yl]-phenol] | > 19 µM | – | –
Brc1ccc(-c2nc(-c3ccccn3)n[nH]2)cc1 [Compound 433, 2-[5-(4-Bromo-phenyl)-1H-[1,2,4]triazol-3-yl]-pyridine] | – | > 19 µM | –
Cc1cccnc1-c1n[nH]c(-c2ccccc2O)n1 [Compound 452, 2-(5-(3-methyl-pyridin-2-yl)-2H-[1,2,4]triazol-3-yl)-phenol] | – | 31 µM | –
COc1ccc(-c2ccn(-c3c(Cl)cncc3Cl)n2)c(F)c1 [Compound 49, 3,5-Dichloro-4-[3-(2-fluoro-4-methoxy-phenyl)-pyrazol-1-yl]-pyridine] | – | – | > 32 µM
COc1cccc(-c2nc(-c3cnccc3C(F)(F)F)n[nH]2)c1O [Compound 423, 6-Methoxy-2-[5-(4-trifluoromethyl-pyridin-3-yl)-2H-[1,2,4]triazol-3-yl]-phenol] | – | > 19 µM | –
COc1cc(O)c(-c2nc(-c3ncccc3C)no2)c(OC)c1 [Compound 240, 3,5-Dimethoxy-2-[3-(3-methyl-pyridin-2-yl)-[1,2,4]oxadiazol-5-yl]-phenol] | – | 0.7 µM | 0.7 µM
COc1ccc(OCc2ccccc2)c(-c2ccnn2-c2ncccc2C(F)(F)F)c1 [Compound 81, 2-[5-(2-Benzyloxy-5-methoxy-phenyl)-pyrazol-1-yl]-3-trifluoromethyl-pyridine] | – | – | 6.2 µM
COc1ccc(O)c(-c2nc(-c3ncccc3OC)no2)c1 [Compound 248, 4-Methoxy-2-[3-(3-methoxy-pyridin-2-yl)-[1,2,4]oxadiazol-5-yl]-phenol] | – | 13 µM | 13 µM
COc1ccc(F)c(-c2nc(-c3ccc(C(F)(F)F)cn3)n[nH]2)c1 [Compound 524, 2-[5-(2-Fluoro-5-methoxy-phenyl)-1H-[1,2,4]triazol-3-yl]-5-trifluoromethyl-pyridine] | > 19 µM | – | –
O=[N+]([O-])c1cccnc1-n1ccc(-c2ccccc2O)n1 [Compound 41, 2-[1-(3-Nitro-pyridin-2-yl)-1H-pyrazol-3-yl]-phenol] | – | – | 6 µM
Oc1ccccc1-c1nc(-c2ncccc2C(F)(F)F)n[nH]1 [Compound 542, 2-[5-(3-trifluoromethyl-pyridin-2-yl)-2H-[1,2,4]triazol-3-yl]-phenol] | > 19 µM | – | –
Cc1cccnc1-c1noc(-c2c(O)ccc3ccccc23)n1 [Compound 189, 1-[3-(3-Methyl-pyridin-2-yl)-[1,2,4]oxadiazol-5-yl]-naphthalen-2-ol] | – | – | 1.2 µM
Oc1ccc(Cl)cc1-c1ncn(-c2ccccn2)n1 [Compound 630, 4-Chloro-2-(1-pyridin-2-yl-1H-[1,2,4]triazol-3-yl)-phenol] | 11 µM | – | –
COc1cccc(-c2nc(-c3ccccn3)n[nH]2)c1 [Compound 387, 2-[5-(3-Methoxy-phenyl)-1H-[1,2,4]triazol-3-yl]-pyridine] | – | > 19 µM | –
Cc1ccccc1-c1nnc(-c2ccco2)o1 [Compound 303, 2-Furan-2-yl-5-o-tolyl-[1,3,4]oxadiazole] | – | > 32 µM | –
Cc1cccnc1-c1n[nH]c(-c2ccc(OCc3ccccc3)cc2O)n1 [Compound 447, 5-Benzyloxy-2-(5-(3-methyl-pyridin-2-yl)-2H-[1,2,4]triazol-3-yl)-phenol] | – | > 10 µM | –
COc1ccc(-c2ccnn2-c2ncccc2[N+](=O)[O-])c(F)c1 [Compound 46, 2-[5-(2-Fluoro-4-methoxy-phenyl)-pyrazol-1-yl]-3-nitro-pyridine] | – | – | 6 µM
Cc1ccc(O)c(-c2nc(-c3nccc4ccccc34)n[nH]2)c1 [Compound 375, 4-Methyl-2-(5-isoquinolin-1-yl-2H-[1,2,4]triazol-3-yl)-phenol] | – | > 19 µM | –
Oc1ccc(Br)cc1-c1nc(-c2nccc3ccccc23)no1 [Compound 204] | – | – | 1.6 µM
Cc1ccc(O)c(-c2nc(-c3ncccc3C)n[nH]2)c1 [Compound 450, 4-Methyl-2-(5-(3-methyl-pyridin-2-yl)-2H-[1,2,4]triazol-3-yl)-phenol] | – | 4.2 µM | –
Oc1ccc(Br)cc1-c1nc(-c2ccc(C(F)(F)F)cn2)n[nH]1 [Compound 515, 4-Bromo-2-[5-(5-trifluoromethyl-pyridin-2-yl)-2H-[1,2,4]triazol-3-yl]-phenol] | > 19 µM | – | –
Oc1ccc2ccccc2c1-c1nc(-c2ncccc2-c2ccccc2)no1 [Compound 229, 1-[3-(3-Phenyl-pyridin-2-yl)-[1,2,4]oxadiazol-5-yl]-naphthalen-2-ol] | – | > 10 µM | > 10 µM

SMILES | EC50 [1] | EC50 [2] | EC50 [3]
Oc1ccc(F)cc1-c1nc(-c2ncccc2C(F)(F)F)n[nH]1 [Compound 533, 4-Fluoro-2-[5-(3-trifluoromethyl-pyridin-2-yl)-2H-[1,2,4]triazol-3-yl]-phenol] | > 19 µM | – | –
Fc1cc(Br)ccc1-c1nc(-c2ccc(C(F)(F)F)cn2)n[nH]1 [Compound 528, 2-[5-(4-Bromo-2-fluoro-phenyl)-1H-[1,2,4]triazol-3-yl]-5-trifluoromethyl-pyridine] | > 19 µM | – | –
FC(F)(F)c1ccncc1-c1n[nH]c(-c2cccc3ccccc23)n1 [Compound 410, 3-(5-Naphthalen-1-yl-1H-[1,2,4]triazol-3-yl)-4-trifluoromethyl-pyridine] | – | 2.9 µM | –
Oc1ccccc1-c1nc(-c2ccc(C(F)(F)F)cn2)no1 [Compound 223] | – | 19 µM | 19 µM
COc1ccc(-c2nc(-c3ccccn3)no2)c(O)c1 [Compound 152, 5-Methoxy-2-(3-pyridin-2-yl-[1,2,4]oxadiazol-5-yl)-phenol] | – | – | 5.6 µM
Cc1ccc(O)c(-c2nc(-c3ncccn3)n[nH]2)c1 [Compound 567, 4-Methyl-2-(5-pyrimidin-2-yl-2H-[1,2,4]triazol-3-yl)-phenol] | > 32 µM | – | –
COc1ccc(O)c(-c2nc(-c3cnccn3)n[nH]2)c1 [Compound 578, 4-Methoxy-2-(5-pyrazin-2-yl-2H-[1,2,4]triazol-3-yl)-phenol] | > 32 µM | – | –
Oc1ccccc1-c1nnc(-c2ncccc2C(F)(F)F)o1 [Compound 342, 2-[5-(3-Trifluoromethyl-pyridin-2-yl)-[1,3,4]oxadiazol-2-yl]-phenol] | – | > 32 µM | –
CC(C)(C)c1ccc(O)c(-c2nc(-c3nccc4ccccc34)n[nH]2)c1 [Compound 367, 4-tert-Butyl-2-(5-isoquinolin-1-yl-2H-[1,2,4]triazol-3-yl)-phenol] | – | > 32 µM | –
COc1cccc(-c2nc(-c3ccccn3)nn2C)c1O [Compound 603, 6-Methoxy-2-(2-methyl-5-pyridin-2-yl-2H-[1,2,4]triazol-3-yl)-phenol] | > 32 µM | – | –
COc1ccc(-c2nc(-c3ncccc3C(F)(F)F)n[nH]2)c(O)c1 [Compound 541, 5-Methoxy-2-[5-(3-trifluoromethyl-pyridin-2-yl)-2H-[1,2,4]triazol-3-yl]-phenol] | > 19 µM | – | –
Cn1nc(-c2ccccn2)nc1-c1ccc(OCc2ccccc2)cc1O [Compound 600, 5-Benzyloxy-2-(2-methyl-5-pyridin-2-yl-2H-[1,2,4]triazol-3-yl)-phenol] | 5 µM | – | –
COc1cccc(OCc2ccccc2)c1-c1ccn(-c2ccccn2)n1 [Compound 96, 2-[3-(2-Benzyloxy-6-methoxy-phenyl)-pyrazol-1-yl]-pyridine] | – | – | 8.6 µM
COc1ccc(O)c(-c2nc(-c3ccc(NC(=O)OC(C)(C)C)cn3)no2)c1 [Compound 239, {6-[5-(2-Hydroxy-5-methoxy-phenyl)-[1,2,4]oxadiazol-3-yl]-pyridin-3-yl}-carbamic acid tert-butyl ester] | – | 2.1 µM | 2.1 µM
Cn1nc(-c2ccccn2)nc1-c1cc(O)ccc1O [Compound 604, 4-Hydroxy-2-(2-methyl-5-pyridin-2-yl-2H-[1,2,4]triazol-3-yl)-phenol] | 37.6 µM | – | –
Cc1cccnc1-c1noc(-c2ccc(N(C)C)cc2O)n1 [Compound 180] | – | – | 2.1 µM
Cc1cccnc1-c1n[nH]c(-c2cccc([N+](=O)[O-])c2)n1 [Compound 454, 3-Methyl-2-[5-(3-nitro-phenyl)-1H-[1,2,4]triazol-3-yl]-pyridine] | – | 24 µM | –
Cc1ccc(O)c(-c2nc(-c3cnccc3C(F)(F)F)n[nH]2)c1 [Compound 420, 4-Methyl-2-[5-(4-trifluoromethyl-pyridin-3-yl)-2H-[1,2,4]triazol-3-yl]-phenol] | – | 9.7 µM | –
CCCNC(=O)c1cc(-c2ccc(OC)cc2)nn1-c1ccccn1 [Compound 62] | – | – | > 32 µM
Oc1ccc(F)cc1-c1nc(-c2ncccn2)n[nH]1 [Compound 561, 4-Fluoro-2-(5-pyrimidin-2-yl-2H-[1,2,4]triazol-3-yl)-phenol] | > 32 µM | – | –
Nc1cccnc1-c1n[nH]c(-c2c(O)ccc3ccccc23)n1 [Compound 557, 1-[5-(3-amino-pyridin-2-yl)-2H-[1,2,4]triazol-3-yl]-naphthalen-2-ol] | > 3.2 µM | – | –
Cc1cccc(-c2n[nH]c(-c3ccc(OCc4ccccc4)cc3O)n2)n1 [Compound 397, 5-Benzyloxy-2-(5-(6-methyl-pyridin-2-yl)-2H-[1,2,4]triazol-3-yl)-phenol] | – | > 19 µM | –
CCOC(=O)c1cc(-c2ccc3ccccc3c2)nn1-c1ncccc1C(F)(F)F [Compound 68] | – | – | 12 µM
